PubChem BioAssay AID328 (DTP/NCI, 2004)
Inconclusive results and toxic doses are left out. The calls were made as follows: active = survival T/C of 150% or more; inactive = T/C below 125% in these data.

Test system: BDF1 mice, P388 leukemia ip, median survival T/C
Test: NCI In Vivo Anticancer Drug Screen. Data for tumor model P388 Leukemia (intraperitoneal) in B6D2F1 (BDF1) mice
Conditions: endpoint: median survival time, higher = longer survival
How it was run: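 Reported as T/C, where T is the survival measurement in dosed animals and C the same measurement in vehicle controls.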

[1] = dose: 25.0 mg/kg/injection, schedule: Q01DX009 (ip), vehicle: Klucel (hydroxypropylcellulose) (HPC)
[2] = dose: 50.0 mg/kg/injection, schedule: Q04DX003 (ip), vehicle: Klucel (hydroxypropylcellulose) (HPC)
[3] = dose: 100.0 mg/kg/injection, schedule: Q04DX003 (ip), vehicle: Klucel (hydroxypropylcellulose) (HPC)
[4] = dose: 100.0 mg/kg/injection, schedule: Q01DX009 (ip), vehicle: saline with Tween-80
[5] = dose: 100.0 mg/kg/injection, schedule: Q04DX003 (ip), vehicle: saline with Tween-80
[6] = dose: 200.0 mg/kg/injection, schedule: Q01DX009 (ip), vehicle: saline with Tween-80
[7] = dose: 200.0 mg/kg/injection, schedule: Q04DX003 (ip), vehicle: saline with Tween-80
[8] = dose: 400.0 mg/kg/injection, schedule: Q01DX009 (ip), vehicle: saline with Tween-80
[9] = dose: 400.0 mg/kg/injection, schedule: Q04DX003 (ip), vehicle: saline with Tween-80
[10] = dose: 100.0 mg/kg/injection, schedule: Q01DX009 (ip), vehicle: Klucel (hydroxypropylcellulose) (HPC)
[11] = dose: 200.0 mg/kg/injection, schedule: Q01DX009 (ip), vehicle: Klucel (hydroxypropylcellulose) (HPC)
[12] = dose: 200.0 mg/kg/injection, schedule: Q04DX003 (ip), vehicle: Klucel (hydroxypropylcellulose) (HPC)
[13] = dose: 400.0 mg/kg/injection, schedule: Q01DX009 (ip), vehicle: Klucel (hydroxypropylcellulose) (HPC)
[14] = dose: 400.0 mg/kg/injection, schedule: Q04DX003 (ip), vehicle: Klucel (hydroxypropylcellulose) (HPC)

Measured: T/C

COc1ccc2c(c1OC)C1(CCN(C)C)CC(=O)CCC1C=C2 (centres undefined)
inactive: dose: 6.25 mg/kg/injection, schedule: Q01DX009 (ip), vehicle: Klucel (hydroxypropylcellulose) (HPC) 90 % of control | dose: 12.5 mg/kg/injection, schedule: Q01DX009 (ip), vehicle: Klucel (hydroxypropylcellulose) (HPC) 105 % of control | dose: 12.5 mg/kg/injection, schedule: Q04DX003 (ip), vehicle: Klucel (hydroxypropylcellulose) (HPC) 86 % of control | [1] 100 % of control | dose: 25.0 mg/kg/injection, schedule: Q04DX003 (ip), vehicle: Klucel (hydroxypropylcellulose) (HPC) 108 % of control | dose: 35.0 mg/kg/injection, schedule: Q01DX009 (ip), vehicle: Klucel (hydroxypropylcellulose) (HPC) 113 % of control | [2] 100 % of control | dose: 55.0 mg/kg/injection, schedule: Q01DX009 (ip), vehicle: Klucel (hydroxypropylcellulose) (HPC) 118 % of control | dose: 80.0 mg/kg/injection, schedule: Q01DX009 (ip), vehicle: Klucel (hydroxypropylcellulose) (HPC) 118 % of control | [3] 95 % of control | dose: 120.0 mg/kg/injection, schedule: Q01DX009 (ip), vehicle: Klucel (hydroxypropylcellulose) (HPC) 100 % of control | dose: 180.0 mg/kg/injection, schedule: Q01DX009 (ip), vehicle: Klucel (hydroxypropylcellulose) (HPC) 108 % of control

COC(=O)c1cc(C(C)=O)ccc1OC(=O)c1ccccc1
inactive: [4] 118 % of control | [5] 100 % of control | [6] 104 % of control | [7] 100 % of control | [8] 104 % of control | [9] 100 % of control

Nc1c(Br)cc(Br)cc1Br
inactive: dose: 6.0 mg/kg/injection, schedule: Q01DX009 (ip), vehicle: Klucel (hydroxypropylcellulose) (HPC) 110 % of control | dose: 12.0 mg/kg/injection, schedule: Q01DX009 (ip), vehicle: Klucel (hydroxypropylcellulose) (HPC) 105 % of control | [1] 105 % of control | [10] 105 % of control | [3] 100 % of control | [11] 100 % of control | [12] 95 % of control | [13] 111 % of control | [14] 100 % of control

CNc1ccc2c(c1)C(=O)c1c(C)n(C)c3cccc-2c13
inactive: dose: 12.5 mg/kg/injection, schedule: Q01DX005 (ip), vehicle: saline with Tween-80 98 % of control | dose: 25.0 mg/kg/injection, schedule: Q01DX005 (ip), vehicle: saline with Tween-80 98 % of control

COc1ccc(OC)c(C(C)(O)CC(=O)O)c1 (centres undefined)
inactive: dose: 50.0 mg/kg/injection, schedule: Q01DX009 (ip), vehicle: saline with Tween-80 89 % of control | [4] 107 % of control | [5] 112 % of control | [6] 105 % of control | [7] 103 % of control | [8] 90 % of control | [9] 117 % of control

CCN(CCNc1ccc(CO)c2sc3ccccc3c(=O)c12)CC(C)(C)O
inactive: [2] 102 % of control | [3] 100 % of control | [12] 106 % of control

CCCCCCCCCCCCOc1ccc(C)cc1
inactive: [5] 109 % of control | [7] 100 % of control | [9] 100 % of control

CCCCC[C@@H](CN(C)C)[C@H](O)/C=C/c1ccc(Cl)cc1
inactive: dose: 50.0 mg/kg/injection, schedule: Q01DX009 (ip), vehicle: Klucel (hydroxypropylcellulose) (HPC) 96 % of control

CC(=O)c1ccc(Cc2ccc(C(C)=O)cc2)cc1
inactive: [10] 104 % of control | [3] 100 % of control | [11] 104 % of control | [12] 109 % of control | [13] 100 % of control | [14] 95 % of control
